In patent US8017637B2, “Inhibitors of cdc phosphatases” (Ipsen Pharma S.A.S., priority 2004, dated 2011):
pIC50: −log10 of the molar value.

Columns and labels:
[1] = molecular target: T1, purified recombinant enzyme Cdc25-C (MBP-Cdc25C) (Homo sapiens, UniProt P30307); assay: Measurement of the phosphatase activity of the purified recombinant enzyme Cdc25C (OMFP dephosphorylation, fluorescence); type: biochemical; conditions: OMFP 500 μM, 4 hours at 30° C.
T1 construct: made in house
T1 sequence (P30307 1-473): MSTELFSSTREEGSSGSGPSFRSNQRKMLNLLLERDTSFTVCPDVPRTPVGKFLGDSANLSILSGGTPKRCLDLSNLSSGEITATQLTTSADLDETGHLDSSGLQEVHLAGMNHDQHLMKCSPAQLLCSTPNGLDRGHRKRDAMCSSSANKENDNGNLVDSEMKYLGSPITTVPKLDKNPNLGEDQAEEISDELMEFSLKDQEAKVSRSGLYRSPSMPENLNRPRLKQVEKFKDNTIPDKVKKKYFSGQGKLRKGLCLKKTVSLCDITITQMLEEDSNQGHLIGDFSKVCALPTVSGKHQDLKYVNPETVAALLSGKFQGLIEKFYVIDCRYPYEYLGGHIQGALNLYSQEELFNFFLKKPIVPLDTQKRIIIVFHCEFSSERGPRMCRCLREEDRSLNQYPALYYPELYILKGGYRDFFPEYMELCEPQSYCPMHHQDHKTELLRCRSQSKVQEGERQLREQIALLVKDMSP
Method: i) Measurement of the Phosphatase Activity of the Purified Recombinant Enzyme Cdc25C
The phosphatase activity of the protein MBP-Cdc25C is evaluated by the dephosphorylation of 3-O-methylfluorescein-phosphate (OMFP) to 3-O-methylfluorescein (OMF) with a determination of the fluorescence at 475 nm of the reaction product. This test makes it possible to identify inhibitors of the recombinant enzyme cdc25. The preparation of the fusion protein MBP-Cdc25C is described in the Patent Application PCT WO 01/44467.
The reaction is carried out in 384-well plate format at a final volume of 50 μl. The protein MBP-Cdc25C (prepared as described above) is preserved in the following elution buffer: 20 mM Tris-HCl pH 7.4; 250 mM NaCl; 1 mM EDTA; 1 mM of dithiothreitol (DTT); 10 mM maltose. It is diluted to a concentration of 60 μM in the following reaction buffer: 50 mM Tris-HCl pH 8.2; 50 mM NaCl; 1 mM DTT; 20% glycerol. Measurement of the background noise is carried out with the buffer without the addition of the enzyme. The products are tested at decreasing concentrations starting from 40 μM. The reaction is initiated by the addition of an OMFP solution at 500 μM final (prepared extemporaneously from a 12.5 mM stock solution in 100% DMSO (Sigma #M2629)). After 4 hours at 30° C. in a single-use 384-well plate, the fluorescence measured at OD 475 nm is read using a Victor^2 plate reader (EGG-Wallac). The determination of the concentration inhibiting the enzyme reaction by 50% is calculated from three independent experiments. Only the values contained in the linear part of the sigmoid are retained for linear regression analysis.

[2] = system: DU-145 lines (human prostate cancer cells); assay: Anti-proliferative activity, WST1 colorimetric test, DU145 cells; type: cell-based; conditions: 96 hours treatment, up to 10 μM, read-out: IC50 on the cell proliferation of the DU-145 lines
Method: (§1) ii) Characterization of Anti-Proliferative Activity:
(§2) By way of example, the effect of a treatment by the compounds of the examples described previously on two lines of human Mia-Paca2 and DU145 cells will be studied. The cell lines DU145 (human prostate cancer cells) and Mia-PaCa2 (human pancreatic cancer cells) were acquired from the American Tissue Culture Collection (Rockville, Md., USA). The cells placed in 80 μl of Dulbecco's Modified Eagle medium (Gibco-Brl, Cergy-Pontoise, France) completed with 10% foetal calf serum inactivated by heating (Gibco-Brl, Cergy-Pontoise, France), 50,000 units/l of penicillin and 50 mg/l streptomycin (Gibco-Brl, Cergy-Pontoise, France), and 2 mM of glutamine (Gibco-Brl, Cergy-Pontoise, France) were seeded on a 96-well plate on day 0. The cells were treated on day 1 for 96 hours at increasing concentrations of each of the compounds to be tested up to 10 μM. At the end of the of this period, quantification of the cell proliferation is evaluated by a colorimetric test based on the cleavage of the tetrazolium salt WST1 by the mitochondrial dehydrogenases in the viable cells leading to the formation of formazan (Boehringer Mannheim, Meylan, France). These tests are carried out in duplicate with 8 determinations per concentration tested. For each compound to be tested, the values included in the linear part of the sigmoid were retained for linear regression analysis and used in order to estimate the inhibitory concentration IC50. The products are solubilized in dimethylsulphoxide (DMSO) at to 10^−2M and finally used in culture with 0.1% DMSO.

[3] = system: Mia-Paca2 lines (human pancreatic cancer cells); assay: Anti-proliferative activity, WST1 colorimetric test, Mia-Paca2 cells; type: cell-based; conditions: MIA PaCa-2, 96 hours treatment, up to 10 μM, read-out: IC50 on the cell proliferation of the Mia-Paca2 lines
Method: as §1, §2

pIC50 [1] | melting point [°C] | pIC50 [2] | pIC50 [3] | SMILES
≥ 6.00 | 185 to 186 | ≥ 5.00 | ≥ 5.00 | CN(CCCNC1=CC(=O)c2sc(C(=O)NCCCN3CCCC3=O)nc2C1=O)CCCNC1=CC(=O)c2sc(C(=O)NCCCN3CCCC3=O)nc2C1=O [Example 7, 5.5′-[(methylimino)bis(propane-3,1-diylimino)]bis{4,7-dioxo-N-[3-(2-oxopyrrolidin-1-yl)propyl]-4,7-dihydro-1,3-benzothiazole-2-carboxamide}]
≥ 6.00 | 209 to 210 | ≥ 5.00 | ≥ 5.00 | CN(CCCNC1=CC(=O)c2nc(-c3cc(F)ccc3F)oc2C1=O)CCCNC1=CC(=O)c2nc(-c3cc(F)ccc3F)oc2C1=O [Example 8, 6.6′-[(methylimino)bis(propane-3,1-diylimino)]-bis[2-(2,5-difluorophenyl)-1,3-benzoxazole-4,7-dione]]
≥ 6.00 | 165 to 167 | ≥ 5.00 | ≥ 5.00 | CN(CCCNC1=CC(=O)c2nc(Cc3c(F)cccc3Cl)oc2C1=O)CCCNC1=CC(=O)c2nc(Cc3c(F)cccc3Cl)oc2C1=O [Example 10, 6.6′-[(methylimino)bis(propane-3,1-diylimino)]bis[2-(2-chloro-6-fluorobenzyl)-1,3-benzoxazole-4,7-dione]]
≥ 5.30 | 199 to 200 | ≥ 5.00 | ≥ 5.00 | CN(CCCNC1=CC(=O)c2nc(-c3cccc(Br)c3)oc2C1=O)CCCNC1=CC(=O)c2nc(-c3cccc(Br)c3)oc2C1=O [Example 11, 6.6′-[(methylimino)bis(propane-3,1-diylimino)]-bis[2-(3-bromophenyl)-1,3-benzoxazole-4,7-dione]]
≥ 6.00 | 196 to 197 | ≥ 5.00 | ≥ 5.00 | CN(CCCNC1=CC(=O)c2nc(-c3cccc(Cl)c3)oc2C1=O)CCCNC1=CC(=O)c2nc(-c3cccc(Cl)c3)oc2C1=O [Example 14, 6.6′-[(methylimino)bis(propane-3,1-diylimino)]-bis[2-(3-chlorophenyl)-1,3-benzoxazole-4,7-dione]]
≥ 6.00 | 204 to 205 | ≥ 5.00 | ≥ 5.00 | CN(CCCNC1=CC(=O)c2nc(-c3ccc(F)cc3)oc2C1=O)CCCNC1=CC(=O)c2nc(-c3ccc(F)cc3)oc2C1=O [Example 15, 6.6′-[(methylimino)bis(propane-3,1-diylimino)]-bis[2-(4-fluorophenyl)-1,3-benzoxazole-4,7-dione]]
≥ 6.00 | 131 to 132 | ≥ 5.00 | ≥ 5.00 | Cc1nc2c(s1)C(=O)C=C(NCCCN(CCCNC1=CC(=O)c3sc(C)nc3C1=O)CCCNC1=CC(=O)c3sc(C)nc3C1=O)C2=O [Example 18]
≥ 6.00 | > 240 | ≥ 5.00 | ≥ 5.00 | Cc1nc2c(s1)C(=O)C=C(NCC1CCC(CNC3=CC(=O)c4sc(C)nc4C3=O)CC1)C2=O (stereo not shown) [Example 20, 5.5′-[cyclohexane-1,4-diylbis(methyleneimino)]bis(2-methyl-1,3-benzothiazole-4,7-dione)]
≥ 6.00 | 223 to 224 | ≥ 5.00 | ≥ 5.00 | CN(CCCNC1=CC(=O)c2scnc2C1=O)CCCNC1=CC(=O)c2scnc2C1=O [Example 25, 5.5′-[(methylimino)bis(propane-3,1-diylimino)]bis(1,3-benzothiazole-4,7-dione)]
≥ 6.00 | 207 to 208 | ≥ 5.00 | ≥ 5.00 | CN(CCCNC1=CC(=O)c2sc(C(=O)N3CCOCC3)nc2C1=O)CCCNC1=CC(=O)c2sc(C(=O)N3CCOCC3)nc2C1=O [Example 26, 5.5′-[(methylimino)bis(propane-3,1-diylimino)]bis[2-(morpholin-4-ylcarbonyl)-1,3-benzothiazole-4,7-dione]]
≥ 6.00 | 237 to 238 | ≥ 5.00 | ≥ 5.00 | CN(CCCNC1=CC(=O)c2nc(C(=O)N3CCCC3)sc2C1=O)CCCNC1=CC(=O)c2nc(C(=O)N3CCCC3)sc2C1=O [Example 31, 6.6′-[(methylimino)bis(propane-3,1-diylimino)]bis[2-(pyrrolidin-1-ylcarbonyl)-1,3-benzothiazole-4,7-dione]]
≥ 6.00 | 262 to 263 | ≥ 5.00 | ≥ 5.00 | CN(CCCNC1=CC(=O)c2sc(C(=O)Nc3ccc(F)cc3)nc2C1=O)CCCNC1=CC(=O)c2sc(C(=O)Nc3ccc(F)cc3)nc2C1=O [Example 32, 5.5′-[(methylimino)bis(propane-3,1-diylimino)]bis[N-(4-fluorophenyl)-4,7-dioxo-4,7-dihydro-1,3-benzothiazole-2-carboxamide]]
≥ 6.00 | 174 to 175 | ≥ 5.00 | ≥ 5.00 | COc1ccc(CNC(=O)c2nc3c(s2)C(=O)C=C(NCCCN(C)CCCNC2=CC(=O)c4sc(C(=O)NCc5ccc(OC)cc5)nc4C2=O)C3=O)cc1 [Example 33, 5.5′-[(methylimino)bis(propane-3,1-diylimino)]bis[N-(4-methoxybenzyl)-4,7-dioxo-4,7-dihydro-1,3-benzothiazole-2-carboxamide]]
≥ 6.00 | 145 to 146 | ≥ 5.00 | ≥ 5.00 | CN(CCCNC1=CC(=O)c2sc(C(=O)NC3CCCCC3)nc2C1=O)CCCNC1=CC(=O)c2sc(C(=O)NC3CCCCC3)nc2C1=O [Example 35, 5.5′-[(methylimino)bis(propane-3,1-diylimino)]bis(N-cyclohexyl-4,7-dioxo-4,7-dihydro-1,3-benzothiazole-2-carboxamide)]
≥ 6.00 | 202 to 203 | ≥ 5.00 | ≥ 5.00 | COc1ccc(C(=O)N2CCN(C(=O)c3nc4c(s3)C(=O)C=C(NCCCN(C)CCCNC3=CC(=O)c5sc(C(=O)N6CCN(C(=O)c7ccc(OC)cc7)CC6)nc5C3=O)C4=O)CC2)cc1 [Example 36, 5.5′-[(methylimino)bis(propane-3,1-diylimino)]bis(2-([4-(4-methoxybenzoyl)piperazin-1-yl]carbonyl)-1,3-benzothiazole-4,7-dione)]
≥ 6.00 | 173 to 174 | ≥ 5.00 | ≥ 5.00 | CN(CCCNC1=CC(=O)c2sc(C(=O)N3CCN(C(=O)c4ccco4)CC3)nc2C1=O)CCCNC1=CC(=O)c2sc(C(=O)N3CCN(C(=O)c4ccco4)CC3)nc2C1=O [Example 37, 5.5′-[(methylimino)bis(propane-3,1-diylimino)]bis(2-{[4-(2-furoyl)piperazin-1-yl]carbonyl}-1,3-benzothiazole-4,7-dione)]
